Measurements as given in patent US9056067B2, “Pharmaceutical composition for enhancing immunity, and extract of Poria” (Sinphar Pharmaceutical Co., Ltd., priority 2003, dated 2015).
Values joined by “and” are separate entries in the source; they are usually repeats but may differ in a detail not shown here. Equal values may be shown once.

Legend:
IgG = assay: Serum level of IgG (ELISA); assay type: in vivo, mice
Protocol: […] […] The control group was the mice feeding with an equal volume of saline (0.85% of NaCl). Mice were sacrificed at day five, and both the serum and spleen cells were collected. The sera were subsequently used to measure the concentration of IgG, IgM and IgA. The spleen cells were plated onto a 100 mm diameter culture plate and incubated at 37° C. for three hours. The non-adherent cells containing T-lymphocytes, B-lymphocytes and NK cells were collected and properly diluted as described in each assay.
(§1) The mouse to be sacrificed was cervical dislocated and sterilized with 70% ethanol. The cardiac punctuation was performed first to withdraw the blood. After the haemagglutination, the blood sample was subjected to centrifugation and the serum was collect. For isolation of spleen cells, the peritoneum was opened to remove the spleen. The fresh spleen was transferred to a culture plate containing 10 ml of RPMI-1640 culture medium. The spleen was then ground over a fine mesh to release the spleen cells. The spleen cells suspending in the medium were then removed and transferred to a 50-ml conical centrifuge tube. The tube was subjected to centrifugation at 1300 rpm for 10 min. The supernatant was discarded and the pellet was re-suspended in 1 ml of cold RBC lysing buffer containing EDTA-NH4Cl. The cells were incubated at room temperature for 10 min, followed by washing the cells three times with culture medium by centrifugation. The spleen cells were plated onto a 100 mm diameter culture plate and incubated at 37° C. for three hours. The non-adherent cells containing T-lymphocytes, B-lymphocytes and NK cells were collected and properly diluted as described in each assay.
An ELISA was performed in our study to measure the immunoglobulin concentration. Briefly, the spleen cells (5×10^5 cells/ml) were cultured in a medium containing RPMI 1640 supplemented with 10% fetal bovine serum (FBS), 2 mM L-glutamine, antibiotics and 5 μg/ml lipopolysaccharide (LPS; 1 μg/10^5 cells) for 5 days. LPS is a polyclonal activator of B lymphocyte. Culture spleen cell supernatants were collected at day 3, 4 and 5. IgA, IgG and IgM concentrations were measured using a sandwich ELISA technique.
A 96-well microtiter plate (Nunc-Immuno Plate, MaxiSorp, Nunc, Denmark) was precoated with 100 ng/well of capture antibodies at 4° C. overnight. The capture antibody was a rabbit anti-mouse IgG+IgA+IgM antibody (Zymed Laboratory, CA). The plate was washed with PBS-0.05% Tween 20 solution and blocked with PBS-1% gelatin. After the blocking, the properly diluted samples (1/10^5 diluted) and standard IgG ranged from 0.25 μg/ml to 0.039 μg/ml were added (100 μl/well). The plate was then incubated at 37° C. for 2 h. At the end of incubation, HRP-conjugated goat anti-mouse IgG (1:2,000 diluted; anti-whole IgG molecule; Zymed Laboratory, CA) was added (100 μl/well). After 1 h of incubation at 37° C., the color was developed using a substrate solution containing 0.1 M citrate buffer, pH 4.5, 0.03% H2O2 and 0.1% of o-phenylenediamine. The absorbence at 490 nm in each well was read using an ELISA reader (EL311, BioTek, VT), and the data was analyzed using log-logit model.

IFN-γ = IFN-γ secretion by Con A-stimulated spleen cells (ELISA) after oral administration; assay type: in vivo, mice; conditions: for Dose with significantly augmented IFNγ secretion by ConA-stimulated splenic T cells: oral; for IFN-γ secretion by spleen cell: Con A
Protocol: For the drug treatment, the animals were divided into four groups and oral administration with 1 ml of PCM, ranging from 10, 40 to 80 mg/kg/day, for four days. […] The control group was the mice feeding with an equal volume of saline (0.85% of NaCl). Mice were sacrificed at day five, and both the serum and spleen cells were collected. The sera were subsequently used to measure the concentration of IgG, IgM and IgA. The spleen cells were plated onto a 100 mm diameter culture plate and incubated at 37° C. for three hours. The non-adherent cells containing T-lymphocytes, B-lymphocytes and NK cells were collected and properly diluted as described in each assay.
as §1
For the quantitative analysis of IFN-γ and IL-10, the spleen cells (1×10^6 cells/ml) were cultured in a medium containing RPMI 1640 supplemented with 10% fetal bovine serum (FBS), 2 mM L-glutamine, antibiotics and 1 μg/ml concanavalin A (Con A) for 3 days. Con A is one of the polyclonal activators for T lymphocyte. Culture spleen cell supernatants were collected. The IFNγ and IL-10 concentrations were measured using a cytokine ELISA set (Cyto Set ELISA kit) purchased from R&D Systems (MN, USA).
Cyto Set ELISA was performed as follows: A 96-well microtiter plate (Nunc-Immuno Plate, MaxiSorp, Nunc, Denmark) was precoated with capture antibodies at 4° C. overnight. The capture antibody was a rat monoclonal antibody to mouse IL-10. The samples to be tested and standard IL-10 ranged from 500 pg/ml to 15.6 pg/ml were added (100 μl/well). The plate was then incubated at 37° C. for 20 min. At the end of incubation, the plate was washed five times, followed by adding the biotinylated goat anti IL-10 polyclonal antibody. The color was developed by incubating the plate with a HRP-conjugated streptoavidin (Zymed, CA, USA), followed by a substrate solution containing hydrogen peroxide and tetramethylbenzidine (TMB). The reaction continued for 30 min at room temperature, and was stopped by adding 100 μl of 2N of sulfuric acid. The absorbence at 450 nm in each well was read using an ELISA reader (EL311, BioTek, Winooski, Vt.), and the data was analyzed using log-logit model.
Cyto Set ELISA of IFN-γ was similar to that of IL-10, except that the capture antibody was a rat monoclonal antibody to mouse IFN-γ, and secondary antibody was biotinylated goat anti IFN-γ polyclonal antibody.
TH1-type cytokines, such as interleukin-2 (IL-2), interferon-γ (IFN-γ) induces the cellular immune response. Whereas, TH2-type cytokines, such as interleukin-4 (IL-4), interleukin-5 (IL-5), interleukin-6 (IL-6), stimulates the B lymphocyte-mediated humoral immune response. […] Spleen cells isolated from the mice treated with PCM and its purified components, such as PCM-K1, -K2, -K3 and K4, were cultured for five days in the presence of ConA. […]

[1] = oral 10 mg/kg/day for four days
[2] = oral 20 mg/kg/day for four days

| SMILES | Serum immunoglobulin concentration IgG (IgG; oral 5 mg/kg/day for four days) | Serum immunoglobulin concentration IgG (IgG; [1]) | Serum immunoglobulin concentration IgG (IgG; [2]) | Dose with significantly augmented IFNγ secretion by ConA-stimulated splenic T cells (IFN-γ) | IFN-γ secretion by spleen cell (IFN-γ; oral 5 mg/kg/day for four days) | IFN-γ secretion by spleen cell (IFN-γ; [1]) | IFN-γ secretion by spleen cell (IFN-γ; [2]) | Dose with significantly augmented IFNγ secretion by ConA-stimulated splenic T cells (IFN-γ; listed as PCM-K3) |
| --- | --- | --- | --- | --- | --- | --- | --- | --- |
| C=C(CCC(C(=O)O)C1C(O)CC2(C)C3=CCC4C(C)(CCC(O)C4(C)C)C3=CCC12C)C(C)C (centres unmarked) [K4] | 3.75 ± 0.18 mg/mL | 4.33 ± 0.29 mg/mL | 4.18 ± 0.25 mg/mL | 20 mg/kg/day | 240.45 ± 107.83 pg/mL | 252.26 ± 103.76 pg/mL | 292.00 ± 77.77 pg/mL | – |
| C=C(CC[C@@H](C(=O)O)[C@H]1[C@H](O)C[C@@]2(C)C3=CC[C@H]4C(C)(C)C(=O)CC[C@]4(C)C3=CC[C@]12C)C(C)C [K3] | 1.32 ± 0.09 mg/mL | 1.28 ± 0.13 mg/mL | 1.14 ± 0.11 mg/mL | – | 917.07 ± 130.41 pg/mL | 449.74 ± 100.67 pg/mL | 176.20 ± 45.96 pg/mL | 5 mg/kg/day and 10 mg/kg/day |
